This note sets out measurements from patent publication US20240199552A1, “AMIDE COMPOUND AND USE THEREOF” (Metisa Biotechnology Co., Ltd, priority 2021, published 2024).

Type in all cases: in vivo
Data set [1] has as its system Mythimna separata. Description: Insecticidal activity against Mythimna separata, Airbrush spray on maize leaf pieces. The conditions noted are these: 72 h, 0.05 mg/L, 3 days after the administration, 3rd-instar larvae, read-out: mortality rate against Mythimna separata. A digest of the protocol: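 Maize leaf pieces (2 cm) sprayed on both sides by airbrush at 10 psi, 0.5 mL, with compound in water containing 0.1% Tween-80, then shade-dried. Ten 3rd-instar larvae per treatment, 3 replicates, held at 25 °C and 60–70% RH. Mortality scored 3 days after treatment.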

The test system of data set [2] is Diamondback moth. As to the kind of experiment: Insecticidal activity against Diamondback moth, Airbrush spray on cabbage leaf discs. Conditions: Plutella xylostella, foliar, 72 h, 3 days after the administration. The method, boiled down:
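Cabbage leaf discs (2 cm) sprayed front and back by Airbrush at 10 psi with compound diluted in water containing 0.1% Tween-80 (acetone/methanol stock). After shade drying, 10 3rd-instar larvae per disc, 3 replicates, held at 25° C, 60–70% RH; mortality from living larvae counted at 3 days.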

Data set [3] relates to Chilo suppressalis. Description: Insecticidal activity against Chilo suppressalis, sprayed rice stems. The conditions noted are these: 72 h, 0.625 mg/L, 3 days after the administration, 3rd-instar larvae, read-out: mortality rate against Chilo suppressalis. A digest of the protocol: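 Rice seedlings at 4-5 leaf stage sprayed whole with compound in acetone/methanol diluted in 0.1% Tween-80 water. Air-dried basal stem pieces fed to 3rd-instar larvae, 10 per dish, at 26-28° C. Live larvae counted 3 days after treatment.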

Data set [4] deals with Spodoptera exigua. Description: Insecticidal activity against Spodoptera exigua, leaf disc dipping feeding method. The conditions noted are these: foliar, 72 h, 0.625 mg/L, 3 days after the administration, read-out: mortality rate against Spodoptera exigua. A digest of the protocol:
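Compound in acetone/methanol (1:1), diluted with water containing 0.1% Tween-80; leaf discs dipped for 10 s, air-dried, then fed to Spodoptera exigua (10 insects/dish, 3 replicates). Held at 25° C, 14hL:10hD. Deaths counted on days 1, 2 and 3 after treatment to give mortality.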

The test system of data set [5] is Myzus persicae. As to the kind of experiment: Insecticidal activity against Myzus persicae, Airbrush spray on cabbage leaves. The conditions noted are these: 50 mg/L, after 48 h, read-out: mortality rate against Myzus persicae. The method, boiled down: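 Cabbage leaf discs carrying 15-30 aphids, winged aphids removed, on moist filter paper; compound in acetone/methanol diluted into 0.1% Tween-80 water, airbrush-sprayed at 10 psi, 0.5 mL, 3 replicates. Held at 25° C, 60-70% RH; live insects counted at 48 h for mortality.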

Data set [6] relates to Franklinella occidentalis. As to the kind of experiment: Insecticidal activity against Franklinella occidentalis nymphs, sprayed bean leaves.
Data set [7] concerns cat flea. As to the kind of experiment: Insecticidal experiment on cat flea, thin film in culture dish. Conditions: Ctenocephalides felis, 72 h, read-out: mortality rate, cat flea. A digest of the protocol: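 Compound in acetone (100 mg/L) was dried as a film in a culture dish at a dose of 1 μg/cm^2. Ten adult cat fleas, mixed sex, were enclosed at 25° C.; mortality was scored at 72 h, with three repeats.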

For `C#CCN(C(=O)c1ccc(F)nc1)c1cccc(C(=O)Nc2c(I)cc(C(F)(C(F)(F)F)C(F)(F)F)cc2C(F)(F)F)c1F` [Compound 48], the mortality at 0.05 µg/mL in data set [1] was above 90%. Moreover, the mortality at 0.156 µg/mL in data set [2] (0.156 mg/L, Diamondback moth, read-out: Mortality rate (%, 3 days after the administration) 0.156 mg/L) was 100%. In data set [2] (0.313 mg/L, Diamondback moth, read-out: Mortality rate (%, 3 days after the administration) 0.313 mg/L), the mortality at 0.313 µg/mL came to 100%. Moreover, the mortality at 1.25 µg/mL in data set [2] (1.25 mg/L, 3rd-instar larvae, read-out: mortality rate against Diamondback moth) was above 90%. In data set [2] (10 mg/L, Diamondback moth, read-out: Mortality rate (%, 3 days after the administration) 10 mg/L), the mortality at 10 µg/mL was determined as 100%. Also, the mortality at 0.625 µg/mL in data set [3] and in data set [4] was above 90% each time. In addition, in data set [5], the mortality at 50 µg/mL was above 90%. In addition, the “Mortality rate (%, 3 days after the administration) 10 mg/L” value in data set [6] (10 mg/L) came out at 100%. The “Mortality rate (%, 3 days after the administration) 100 mg/L” value in data set [6] (100 mg/L) is reported as 100%. In addition, the mortality at 1 µg/cm2 in data set [7] was above 90%.
